Earlier results in US20070003642A1 (priority 2002, published 2007).

Row | solubility of isoflavones itself (stated as natural solubility, given as explanation) | Compound | solubility of daidzin (background statement)
1 | – | O=c1c(-c2ccc(O)cc2)coc2cc(O[C@@H]3O[C@H](CO)[C@@H](O)[C@H](O)[C@H]3O)ccc12 [daidzin] | about 3.3 mg/100 ml
2 | about 5 mg/L | isoflavones | –
